Target: Multifunctional protein CAD (Mus musculus, UniProt B2RQC6)
Assay: Compound was evaluated for the inhibition of dihydroorotase enzyme from mouse Ehrlich ascites at the concentration of 10 uM and at pH 7.37
Details: read-out: I50

Chain of Multifunctional protein CAD (B2RQC6 whole entry): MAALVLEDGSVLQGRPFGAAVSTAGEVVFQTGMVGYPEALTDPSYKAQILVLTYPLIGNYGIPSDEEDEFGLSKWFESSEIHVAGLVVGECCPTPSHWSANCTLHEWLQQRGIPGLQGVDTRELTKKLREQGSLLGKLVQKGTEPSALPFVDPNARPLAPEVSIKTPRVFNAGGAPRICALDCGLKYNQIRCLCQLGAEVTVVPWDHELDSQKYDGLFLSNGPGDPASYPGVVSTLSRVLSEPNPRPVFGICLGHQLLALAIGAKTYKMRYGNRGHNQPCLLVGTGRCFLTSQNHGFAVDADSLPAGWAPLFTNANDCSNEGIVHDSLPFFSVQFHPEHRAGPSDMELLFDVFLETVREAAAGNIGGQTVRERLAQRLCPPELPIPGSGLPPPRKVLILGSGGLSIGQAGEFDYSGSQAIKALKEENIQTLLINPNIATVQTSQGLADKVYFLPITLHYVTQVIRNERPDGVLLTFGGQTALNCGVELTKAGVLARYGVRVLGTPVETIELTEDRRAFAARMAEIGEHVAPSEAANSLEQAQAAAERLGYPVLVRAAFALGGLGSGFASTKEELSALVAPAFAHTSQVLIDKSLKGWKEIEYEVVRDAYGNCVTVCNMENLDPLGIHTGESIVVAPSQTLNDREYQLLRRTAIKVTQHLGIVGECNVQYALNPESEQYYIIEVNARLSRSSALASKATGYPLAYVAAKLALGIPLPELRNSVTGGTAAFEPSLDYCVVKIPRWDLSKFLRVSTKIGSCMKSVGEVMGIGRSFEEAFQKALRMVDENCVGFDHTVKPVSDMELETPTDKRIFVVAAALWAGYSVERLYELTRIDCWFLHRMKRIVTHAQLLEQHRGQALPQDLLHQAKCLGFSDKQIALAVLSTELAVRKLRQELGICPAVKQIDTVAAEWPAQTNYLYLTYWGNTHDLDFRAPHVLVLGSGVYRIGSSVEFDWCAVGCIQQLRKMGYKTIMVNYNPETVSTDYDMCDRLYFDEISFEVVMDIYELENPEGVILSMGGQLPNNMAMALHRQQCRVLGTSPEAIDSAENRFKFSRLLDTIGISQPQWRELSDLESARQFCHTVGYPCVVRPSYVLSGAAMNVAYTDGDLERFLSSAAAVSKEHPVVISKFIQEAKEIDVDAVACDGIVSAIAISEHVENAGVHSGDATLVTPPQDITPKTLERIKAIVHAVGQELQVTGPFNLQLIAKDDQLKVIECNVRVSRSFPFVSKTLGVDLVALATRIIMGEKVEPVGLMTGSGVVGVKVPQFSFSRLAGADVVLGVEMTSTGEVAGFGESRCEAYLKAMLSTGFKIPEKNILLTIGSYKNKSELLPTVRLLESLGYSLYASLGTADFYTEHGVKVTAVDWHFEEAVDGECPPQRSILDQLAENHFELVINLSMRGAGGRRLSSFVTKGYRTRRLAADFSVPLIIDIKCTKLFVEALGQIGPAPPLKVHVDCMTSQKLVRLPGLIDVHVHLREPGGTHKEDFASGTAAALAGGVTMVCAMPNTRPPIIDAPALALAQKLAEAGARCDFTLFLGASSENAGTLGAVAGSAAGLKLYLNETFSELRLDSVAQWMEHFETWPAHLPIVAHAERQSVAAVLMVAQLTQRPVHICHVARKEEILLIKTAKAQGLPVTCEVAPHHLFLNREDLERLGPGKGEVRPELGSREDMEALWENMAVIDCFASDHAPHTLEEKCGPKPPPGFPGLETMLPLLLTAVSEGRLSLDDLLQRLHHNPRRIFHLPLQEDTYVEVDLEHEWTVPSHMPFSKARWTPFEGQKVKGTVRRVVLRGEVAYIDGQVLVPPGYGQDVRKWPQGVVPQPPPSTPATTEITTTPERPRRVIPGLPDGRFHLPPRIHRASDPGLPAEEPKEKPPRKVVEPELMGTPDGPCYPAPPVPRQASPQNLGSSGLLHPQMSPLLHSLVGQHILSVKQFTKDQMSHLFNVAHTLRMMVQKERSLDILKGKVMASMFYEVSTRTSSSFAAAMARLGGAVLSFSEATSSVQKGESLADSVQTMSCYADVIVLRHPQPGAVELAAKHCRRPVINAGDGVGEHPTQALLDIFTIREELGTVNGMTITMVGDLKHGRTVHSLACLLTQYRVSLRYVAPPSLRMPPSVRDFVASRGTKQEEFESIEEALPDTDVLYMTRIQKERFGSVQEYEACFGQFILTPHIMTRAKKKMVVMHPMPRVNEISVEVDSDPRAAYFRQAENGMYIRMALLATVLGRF

IC50 | SMILES
520 µM | O=C1NC(C(=O)O)CS(=O)(=O)N1 (stereo not given)
< 1000 µM | O=C1CSCC(C(=O)O)N1 (stereo not given)

The next lines start with the compound.

SMILES | IC50
C[S+]1([O-])=NC(=O)NC(C(=O)O)C1 (stereo not given) | > 1000 µM
O=C1C[S+]([O-])CC(C(=O)O)N1 (stereo not given) | 180 µM
NC(=O)NC(CP(=O)(O)O)C(=O)O (stereo not given) | > 1000 µM
